The target in assay [1] is T1, USP28 (Homo sapiens, UniProt Q96RU2).
T1 sequence (Q96RU2 1-700): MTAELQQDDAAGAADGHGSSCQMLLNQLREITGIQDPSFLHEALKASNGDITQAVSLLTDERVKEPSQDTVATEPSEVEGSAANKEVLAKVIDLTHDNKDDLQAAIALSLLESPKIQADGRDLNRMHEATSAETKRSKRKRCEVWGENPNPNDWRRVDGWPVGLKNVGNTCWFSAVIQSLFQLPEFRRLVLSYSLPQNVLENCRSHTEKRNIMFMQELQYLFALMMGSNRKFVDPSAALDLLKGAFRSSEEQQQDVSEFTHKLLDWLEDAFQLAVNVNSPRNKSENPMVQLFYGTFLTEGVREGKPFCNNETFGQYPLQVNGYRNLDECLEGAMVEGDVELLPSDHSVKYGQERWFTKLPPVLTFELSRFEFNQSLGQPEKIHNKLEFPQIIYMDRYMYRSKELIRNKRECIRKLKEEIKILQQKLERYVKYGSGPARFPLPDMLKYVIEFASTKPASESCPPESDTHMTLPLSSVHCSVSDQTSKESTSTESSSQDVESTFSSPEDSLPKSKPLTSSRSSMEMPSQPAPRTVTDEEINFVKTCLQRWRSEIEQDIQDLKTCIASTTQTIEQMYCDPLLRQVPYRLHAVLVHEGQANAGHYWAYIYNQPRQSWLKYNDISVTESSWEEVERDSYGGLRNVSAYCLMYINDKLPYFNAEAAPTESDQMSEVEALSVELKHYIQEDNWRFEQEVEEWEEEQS
Put plainly: biochemical. The assay is classed as biochemical. To be noted: for Inhibition rate at 12.5 μmol/L (%): 12.5 μmol/L compound, Ub-AMC substrate; for inhibition at 12.5 µM: read-out: Inhibition rate at 12.5 μmol/L (%).

Assay [2] has as its target T1, USP28. The assay can be described thus: Bio-layer interferometry. It is filed as binding. For orientation: In BLI a coated tip is dipped into the sample, and binding shifts an interference pattern.
Assay [3] deals with T1, USP28. Particulars: read-out: EC50 USP28 inhibition; cited from earlier work.
For assay [4], the system named is MGC-803 cells. Put plainly: cells. To be noted: Homo sapiens, MGC-803, 72 h, read-out: IC50 cell viability MGC-803.
Assay [5] deals with USP28, LSD1 and total c-Myc in HGC-27 cells. The assay can be described thus: Western blotting of USP28, LSD1 and total c-Myc. The assay is classed as cell-based, human. To be noted: HGC-27, 3 h, even at 40 μmol/L.
For assay [6], the system named is GES-1 cells. The assay can be described thus: cells. Particulars: Homo sapiens, GES1, 72 h, read-out: IC50 cell viability GES-1.
Assay [7] has as its system MKN45 cells. Put plainly: cells. To be noted: Homo sapiens, MKN-45, 72 h, read-out: IC50 cell viability MKN45.
Assay [8] relates to HGC-27 cells. The assay can be described thus: MTT cell viability assay, HGC-27. Particulars: Homo sapiens, HGC-27, 72 h, read-out: IC50 cell viability HGC-27.

Where two headings read alike, the source gives them in different places.

Regarding `CCCSc1nc(NC2CC2)c2nnn(Cc3ccccc3)c2n1` [Compound 3, 3-Benzyl-N-cyclopropyl-5-(propylthio)-3H-[1,2,3]triazolo[4,5-d]pyrimidin-7-amine], in assay [1], the IC50 is over 100 µM and the “Inhibition rate at 12.5 μmol/L (%)” value is “Inactive”.

As for `CCCSc1nc(NCc2cccnc2)c2nnn(Cc3ccccc3)c2n1` [Compound 6, 3-Benzyl-5-(propylthio)-N-(pyridin-3-ylmethyl)-3H-[1,2,3]triazolo[4,5-d]pyrimidin-7-amine], in assay [1], the concentration for half-maximal inhibition (IC50) worked out at 20.5 ± 1.45 µM and the inhibition at 12.5 µM was determined as 23.1%.

`CCCSc1nc(NCCN)c2nnn(CCCc3ccccc3)c2n1` [Compound 14, N^1-(3-(3-Phenylpropyl)-5-(propylthio)-3H-[1,2,3]triazolo[4,5-d]pyrimidin-7-yl)ethane-1,2-diamine] gave an IC50 in assay [1] of 27.6 ± 2.2 µM.

As to `CCCSc1nc(NCCN)c2nnn(Cc3ccccc3Cl)c2n1` [Compound 17, N^1-(3-(2-Chlorobenzyl)-5-(propylthio)-3H-[1,2,3]triazolo[4,5-d]pyrimidin-7-yl)ethane-1,2-diamine], in assay [1], the IC50 worked out at 13.21 ± 0.03 µM and the inhibition at 12.5 µM came out at 56%.

For `CCCSc1nc(NCCNC)c2nnn(Cc3ccccc3)c2n1` [Compound 11, N^1-(3-Benzyl-5-(propylthio)-3H-[1,2,3]triazolo[4,5-d]pyrimidin-7-yl)-N^2-methylethane-1,2-diamine], in assay [1], half-maximal inhibition (IC50) was put at 8.55 ± 0.87 µM and the inhibition at 12.5 µM is 61.7%.

On to `CCCSc1nc(NCCNC(C)=O)c2nnn(Cc3ccc(Cl)cc3)c2n1` [Compound 20, N-(2-((3-(4-Chlorobenzyl)-5-(propylthio)-3H-[1,2,3]triazolo[4,5-d]pyrimidin-7-yl)amino)ethyl)acetamide], for which, in assay [1], the IC50 was over 100 µM and the “Inhibition rate at 12.5 μmol/L (%)” value was “Inactive”.

As to `CCCSc1nc(NCc2ccco2)c2nnn(Cc3ccccc3)c2n1` [Compound 5, 3-Benzyl-N-(furan-2-ylmethyl)-5-(propylthio)-3H-[1,2,3]triazolo[4,5-d]pyrimidin-7-amine], the IC50 in assay [1] (read-out: IC50 against USP28, Ub-AMC 100 nmol/L, USP28 62.5 nmol/L) was 14.2 ± 0.19 µM. The inhibition at 12.5 µM in assay [1] came out at 45.6%.

For `CCCSc1nc(NCCCN2CCOCC2)c2nnn(Cc3ccccc3)c2n1` [Compound 4, 3-Benzyl-N-(3-morpholinopropyl)-5-(propylthio)-3H-[1,2,3]triazolo[4,5-d]pyrimidin-7-amine], in assay [1], the IC50 is over 100 µM and the “Inhibition rate at 12.5 μmol/L (%)” value is reported as “Inactive”.

Consider `CCCSc1nc(NCCN)c2nnn(Cc3ccc(O)cc3)c2n1` [Compound 16, 4-((7-((2-Aminoethyl)amino)-5-(propylthio)-3H-[1,2,3]triazolo[4,5-d]pyrimidin-3-yl)methyl)phenol], for which, in assay [1], the IC50 is 28.7 ± 1.36 µM and the inhibition at 12.5 µM came to 36.2%.

`C#CCSc1nc(NCCN)c2nnn(Cc3ccc(Cl)cc3)c2n1` [Compound 24, N^1-(3-(4-Chlorobenzyl)-5-(prop-2-yn-1-ylthio)-3H-[1,2,3]triazolo[4,5-d]pyrimidin-7-yl)ethane-1,2-diamine]: in assay [1], half-maximal inhibition (IC50) required 14.5 ± 0.19 µM and the inhibition at 12.5 µM was 59.9%.

Turning to `NCCNc1ncnc2c1nnn2Cc1ccc(Cl)cc1` [Compound 21, N^1-(3-(4-Chlorobenzyl)-3H-[1,2,3]triazolo[4,5-d]pyrimidin-7-yl)ethane-1,2-diamine], in assay [1], half-maximal inhibition (IC50) was put at 12.3 ± 0.27 µM and the inhibition at 12.5 µM was 62.2%.

Take `CCCSc1nc(NCCN)c2nnn(CCc3c[nH]c4ccccc34)c2n1` [Compound 15, N^1-(3-(2-(1H-Indol-3-yl)ethyl)-5-(propylthio)-3H-[1,2,3]triazolo[4,5-d]pyrimidin-7-yl)ethane-1,2-diamine]: in assay [1], the IC50 was 24.8 ± 0.58 µM and the inhibition at 12.5 µM came to 34%.

With `CCCSc1nc(N2CCNCC2)c2nnn(Cc3ccccc3)c2n1` [Compound 7, 3-Benzyl-7-(piperazin-1-yl)-5-(propylthio)-3H-[1,2,3]triazolo[4,5-d]pyrimidine], in assay [1], it took 10.2 ± 1.3 µM to reach half-maximal inhibition (IC50) and the inhibition at 12.5 µM was found to be 50%.

Take `Cc1nc(NCCN)c2nnn(Cc3ccc(Cl)cc3)c2n1` [Compound 23, N^1-(3-(4-Chlorobenzyl)-5-methyl-3H-[1,2,3]triazolo[4,5-d]pyrimidin-7-yl)ethane-1,2-diamine]: in assay [1], the IC50 came to 34.8 ± 1.27 µM and the inhibition at 12.5 µM turned out to be 35%.

Take `CCCSc1nc(NCCN)c2nnn(Cc3ccccc3)c2n1` [Compound 8, N^1-(3-benzyl-5-(propylthio)-3H-[1,2,3]triazolo[4,5-d]pyrimidin-7-yl)ethane-1,2-diamine]: the Kd in assay [2] stood at 0.09 µM. Moreover, in assay [1], the IC50 stood at 4.34 ± 0.3 µM and the inhibition at 12.5 µM turned out to be 80%.

`CCCSc1nc(NCCN)c2nnn(Cc3ccc(Br)cc3)c2n1` [Compound 18, N^1-(3-(4-Bromobenzyl)-5-(propylthio)-3H-[1,2,3]triazolo[4,5-d]pyrimidin-7-yl)ethane-1,2-diamine]: in assay [1], the IC50 was 6 ± 0.05 µM and the inhibition at 12.5 µM was determined as 76.7%.

Take `NCCNc1nc(SCc2ccccc2)nc2c1nnn2Cc1ccc(Cl)cc1` [Compound 22, N^1-(5-(Benzylthio)-3-(4-chlorobenzyl)-3H-[1,2,3]triazolo[4,5-d]pyrimidin-7-yl)ethane-1,2-diamine]: in assay [1], it took 23.3 ± 0.59 µM to reach half-maximal inhibition (IC50) and the inhibition at 12.5 µM turned out to be 45%.

`N#CSc1cc(SC#N)c(N)nc1N` [PR-619]: in assay [3], the EC50 is about 8 µM.

For the compound `CCCSc1nc(NCCNC(=O)OC(C)(C)C)c2nnn(Cc3ccccc3)c2n1` [Compound 9, Tert-butyl(2-((3-benzyl-5-(propylthio)-3H-[1,2,3]triazolo[4,5-d]pyrimidin-7-yl)amino)ethyl)carbamate], in assay [1], the IC50 is over 100 µM and the “Inhibition rate at 12.5 μmol/L (%)” value is “Inactive”.

Consider `CCCSc1nc(NCCN)c2nnn(CCO)c2n1` [Compound 12, 2-(7-((2-Aminoethyl)amino)-5-(propylthio)-3H-[1,2,3]triazolo[4,5-d]pyrimidin-3-yl)ethan-1-ol], for which the 50% inhibitory concentration (IC50) was over 50 µM in assay [4]; over 100 µM in assay [6]; over 50 µM in assay [7]; over 100 µM in assay [1]; over 100 µM in assay [8]. Further, the “protein levels of USP28, LSD1 and total c-Myc” value in assay [5] is on record as “remained unchanged”. For the same compound, the “Binding to USP28 (in words)” value in assay [2] (BLI) was “failed to bind”. The “Inhibition rate at 12.5 μmol/L (%)” value in assay [1] was “Inactive”.

Take `CCCSc1nc(NCCN)c2nnn(CCNC(=O)OC(C)(C)C)c2n1` [Compound 13, Tert-butyl(2-(7-((2-aminoethyl)amino)-5-(propylthio)-3H-[1,2,3]triazolo[4,5-d]pyrimidin-3-yl)ethyl)carbamate]: in assay [1], the IC50 is over 100 µM and the “Inhibition rate at 12.5 μmol/L (%)” value is given as “Inactive”.

`CCCSc1nc(NCCN(C)C)c2nnn(Cc3ccccc3)c2n1` [Compound 10, N^1-(3-Benzyl-5-(propylthio)-3H-[1,2,3]triazolo[4,5-d]pyrimidin-7-yl)-N^2,N^2-dimethylethane-1,2-diamine]: in assay [1], the IC50 is over 100 µM and the “Inhibition rate at 12.5 μmol/L (%)” value is listed as “Inactive”.

One may read the IC50 as the concentration needed to halve the response being measured. A word on the Kd: it is a measure of binding affinity in units of concentration. The EC50 is the concentration that produces a half-maximal response.

(Values after article PMC7488365 (Acta Pharmaceutica Sinica. B, 2019).)
